PMC7696255, “In-Silico Identified New Natural Sortase A Inhibitors Disrupt S. aureus Biofilm Formation” (International Journal of Molecular Sciences, 2020)
Values joined by “and” are separate entries in the source; they are usually repeats but may differ in a detail not shown here. Equal values may be shown once. Read-outs that look alike come from different tables or passages of the source.

Experiments:
[1] = biological target: T1, S. aureus sortase A (Staphylococcus aureus, UniProt Q2FV99); experiment: SrtA enzyme inhibition FRET assay, 5-FAM/QXL 520 substrate; type: biochemical
T1 construct: purchased AnaSpec AS-72229
Procedure: (§1) The enzymatic reactions were carried out in black, low-binding polystyrene 384 well plates (Greiner Bio-One). […] SrtA was pre-incubated in the reaction buffer with compounds for 1 h at room temperature prior to the addition of the FRET substrate. Assays were performed in 50 µL reactions with 50 ng of S. aureus sortase A and 25 µM of DABCYL-LPETG-EDANS substrate or 1 µM of 5-FAM/QXL^TM 520 substrate. The inhibitory activity of the compounds was determined by monitoring the rise in fluorescence intensity over 24 h at Ex/Em = 336 nm/490 nm for the DABCYL/EDANS substrate and Ex/Em = 490 nm/520 nm for the 5-FAM/QXL 520 substrate on a Tecan Infinite M1000 Pro reader.
(§2) Raw fluorescence data were corrected for autofluorescence before computing percentage inhibition values. These percentage inhibition values were plotted against compound concentration using GraphPad Prism version 8.0 by nonlinear regression analysis using least squares fit method for IC50 determination. Testing was performed twice to ensure reproducibility of results.

[2] = biological target: T1, S. aureus sortase A; experiment: SrtA enzyme inhibition FRET assay, DABCYL-LPETG-EDANS substrate; type: biochemical
Procedure: as §1, §2

[3] = tested on: HepG2 cells; experiment: Mammalian cell cytotoxicity assay (PrestoBlue); type: cell-based, human; conditions: Homo sapiens, HepG2, 72 h, read-out: Mammalian cell lines IC50
Procedure: (§3) A549 and HepG2 cells were seeded at 1500 and 2500 cells per well, respectively, in 384-well microplates and incubated at 37 °C in the presence of 5% CO2. The next day, cells were treated with compounds then incubated for an additional 72 h. To assess the cytotoxic effect of the compounds PrestoBlue cell viability reagent (Life Technologies, Carlsbad, CA, USA) was used. After the 72 h incubation with compounds, the 384-well assay plates were incubated with this viability indicator dye for 2 h (A549) and 4 h (HepG2) before fluorescence reading at Ex/Em = 560 nm/590 nm on the Tecan Infinite M1000 Pro reader. Puromycin (data not shown) was used as the positive control against both cell lines. All tests were executed in triplicate on two separate experiments.

[4] = tested on: A549 cells; experiment: Mammalian cell cytotoxicity assay (PrestoBlue); type: cell-based, human; conditions: Homo sapiens, A549, 72 h, read-out: Mammalian cell lines IC50
Procedure: as §3

[5] = tested on: S. aureus ATCC 33591 (MRSA) biofilm formation; experiment: Biofilm inhibitory assay (crystal violet), biofilm formation; type: cell-based, Staphylococcus aureus; conditions: S. aureus ATCC 33591 (MRSA), biofilm formation, read-out: Biofilm Inhibition IC50
Procedure: (§4) The effectiveness of SrtA inhibitors in reducing biofilm formation and growth was assessed using the crystal violet (CV) biofilm assay with the following modifications. TSB with 2% glucose (TSB without glucose for E. coli) was inoculated with 10^5 CFU/mL of S. aureus and E. coli overnight cultures. A total of 90µl of this cell suspension was then dispensed into 96-well microtiter plates containing 10 µL of different concentrations of the SrtA inhibitors. After 24 h growth at 37 °C the plates were washed with PBS to remove unbound cells and heat fixed at 60 °C for 30 min. Next, the wells were stained with 0.1% crystal violet solution for 15 min at room temperature. At the completion of the incubation plates were washed 3 times with PBS and dried. Then the crystal violet dye from the biofilm was solubilized with 200 µL of DMSO. A total of 100 µL of this solution was then moved to a new microtiter plate for absorbance measurement at 595 nm. For pre-formed biofilm assay, the plates were prepared and incubated as mentioned earlier, without SrtA inhibitors. After 24 h incubation, the culture supernatant was removed gently and biofilm carefully washed with sterile PBS. Next, 10 µL of different concentrations of SrtA inhibitors with 90 µL of TSB with 2% glucose were added carefully into the wells and incubated at 37 °C for 24 h. The amount of crystal violet staining of biofilm was measured as described above. The results were reported as percent inhibition normalized to the wild type control. Two independent experiments were performed in triplicate to ensure reproducibility.

[6] = tested on: S. aureus Newman biofilm formation; experiment: as above; type: cell-based, Staphylococcus aureus; conditions: CV assay; for IC50: biofilm formation, read-out: Biofilm Inhibition IC50
Procedure: as §4

[7] = tested on: adherence of S. aureus Newman to fibrinogen; experiment: Fibrinogen binding assay; type: cell-based, Staphylococcus aureus; conditions: for IC50: read-out: Fibrinogen adherence Inhibition IC50; for concentration giving ≥90% prevention of S. aureus Newman adherence to fibrinogen: compared to untreated wildtype strain
Procedure: Fibrinogen binding assay was completed as described but with slight revision. A flat-bottom 96-well plate was covered with fibrinogen protein by adding 50 µL of 20 µg/mL of fibrinogen protein from bovine plasma diluted in saline and incubated at 4 °C for 24 h. The coated plates were gently rinsed twice with PBS and blocked for 60 min with 4% bovine serum albumin (BSA). The plates were then washed 3 times with PBS. For this assay, S. aureus Newman strain was cultivated in TSB at 37 °C to exponential phase (OD600 = 0.5) and then the bacterial culture was incubated with various concentrations of test compound or control for 2.5 h. Then the cells were pelleted by centrifugation at 10,000× g for 10 min, the supernatants were removed and the cell pellets stored at −20 °C. The following day, cell pellets were suspended in PBS and dispersed in 100 μL aliquots to distinct wells of fibrinogen-coated 96-well plates. After 2 h of growth at 37 °C, the bacterial supernatant was discarded and the wells were rinsed gently with 150 µl PBS. Then the bacterial cells were fixed with 2% (v/v) glutaraldehyde and incubated for 30 min at 25 °C. After a wash with PBS, bound cells were stained with 0.1% crystal violet dye for 15 min. Plates were rinsed twice again with PBS, enclosed with aluminum foil, then stored at room temperature to dry overnight. On the next day absorbance was measured at 570 nm. The results were described as the percent of adhesion inhibition normalized to the wild type control. Two independent experiments were performed in triplicate to ensure reproducibility.

[8] = tested on: S. aureus ATCC 33591 (MRSA); experiment: S. aureus whole cell assay (MIC, microbroth dilution); type: cell-based, Staphylococcus aureus; conditions: 24 h
Procedure: (§5) Minimum inhibitory concentration (MIC) tests were performed according to procedures of the Clinical Laboratory Standards Institute (CLSI) with minor changes using the microbroth dilution technique in a 384-well setup. Inoculum of each S. aureus strain was prepared by suspending segregated colonies in sterile saline to a 0.5 McFarland standard. An inoculum of 2–8 × 10^5 CFU/mL was incubated with the compounds for 24 h at 37 °C. Gentamicin (data not shown) was incubated in the same manner as the test compounds and served as a positive control. The effect of the compounds on bacterial growth was calculated by quantifying the optical density at 600 nm on a microplate reader (Tecan, Infinite M1000, Salzburg, Austria). Dilutions of the inoculum were cultivated on agar to verify the validity of the inoculum seeding density and absence of contamination. All tests were executed in triplicate during two separate experiments.

[9] = tested on: S. aureus Newman; experiment: as above; type: cell-based, Staphylococcus aureus
Procedure: as §5

[10] = tested on: S. aureus ATCC 25923; experiment: as above; type: cell-based, Staphylococcus aureus; conditions: Staphylococcus aureus, ATCC25923, 24 h
Procedure: as §5

[11] = tested on: S. aureus Newman pre-formed biofilms; experiment: Biofilm inhibitory assay (crystal violet), pre-formed biofilms; type: cell-based, Staphylococcus aureus; conditions: pre-formed biofilms, CV assay, read-out: Biofilm Inhibition IC50
Procedure: as §4

T1 sequence (Q2FV99 whole entry): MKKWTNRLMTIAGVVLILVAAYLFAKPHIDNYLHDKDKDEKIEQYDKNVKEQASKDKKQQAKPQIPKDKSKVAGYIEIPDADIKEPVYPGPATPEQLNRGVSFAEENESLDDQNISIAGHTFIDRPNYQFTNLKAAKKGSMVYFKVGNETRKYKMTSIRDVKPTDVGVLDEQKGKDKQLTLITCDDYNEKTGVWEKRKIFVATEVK

In the case of `CC(/C=C/[C@@]1(C)[C@H](C)CCC(=O)[C@@H]1C)=C\Cc1c(O)c(Cl)c(C)c(C=O)c1O` [Compound N1321, Ascochlorin], the IC50 ([1]; Sortase A IC50, 5-FAM/QXL substrate, 10 min) is reported as over 200 µM and the IC50 ([2]; Sortase A IC50, DABCYL-LPETG-EDANS substrate, 4 h) is reported as over 200 µM.

`COc1c(C)c2c(c(O)c1C/C=C(\C)CCC(=O)OC1c3cc(O)cc(O)c3C(=O)OC1(C)O)C(=O)OC2` (centres unmarked) [Compound N1871, Antibiotic F 13459] was tested, and the IC50 [1] was over 200 µM and the IC50 [2] was over 200 µM.

Work on `COc1ccc(CC(N)C(=O)NC2C(C(=O)O)OC(n3cnc4c(N)ncnc43)C2O)cc1` (centres unmarked) [Compound N2238, Chryscandin] yielded an IC50 [1] of over 200 µM and an IC50 [2] of over 200 µM.

`CC1=CC2c3c(cc4oc5cc(C)cc(O)c5c4c3C)OC3(O)C(=O)c4oc5cc(C)cc(O)c5c4C(C)(C1)C23` (centres unmarked) [Compound N2450, Asticolorin B] gave an IC50 ([1]; read-out: Sortase A IC50, 5-FAM/QXL substrate, 10 min) of over 200 µM and an IC50 ([2]; read-out: Sortase A IC50, DABCYL-LPETG-EDANS substrate, 4 h) of over 200 µM.

Work on `COc1cc(/C=C/C(=O)CC(=O)/C=C/c2ccc(O)c(OC)c2)ccc1O` [Curcumin, reference compound] yielded an IC50 [3] of 39.6 ± 5.3 µM, an IC50 [4] of 48.2 ± 12.7 µM and an IC50 ([5]; Staphylococcus aureus) of over 150 µM. The “concentration giving >90% inhibition of biofilm formation” value [6] was 174 µM, the IC50 ([6]; Staphylococcus aureus, NEWMAN) was 51.2 ± 4.4 µM and the IC50 [6] was 51 µM. The IC50 ([7]; Staphylococcus aureus, NEWMAN) was 46.5 ± 6.2 µM, the “concentration giving ≥90% prevention of S. aureus Newman adherence to fibrinogen” value [7] was over 170 µM and the MIC ([8]; Staphylococcus aureus) was over 200 µM. For the same compound, the MIC ([9]; Staphylococcus aureus, NEWMAN, 24 h) was over 200 µM, the “growth inhibition of S. aureus” value ([9]; at 200 µM, strain not given) was “did not inhibit the growth” and the MIC [10] was over 200 µM.

Work on `O=C(O)c1cc[c]([Hg][OH])cc1` [p-HMB, p-hydroxymercuribenzoic acid, reference compound] yielded an IC50 [11] of 43 ± 3.6 µM, an IC50 ([1]; 5-FAM/QXL substrate, 10 min, read-out: Sortase A IC50) of 0.18 ± 0.08 µM and an IC50 ([2]; DABCYL-LPETG-EDANS substrate, 4 h, read-out: Sortase A IC50) of 0.2 ± 0.07 µM. For the same compound, the IC50 [5] was over 150 µM, the “concentration giving >90% inhibition of biofilm formation” value [6] was 22 µM and the IC50 [6] was 11.9 µM and 12 µM. For the same compound, the IC50 ([7]; S. aureus Newman) was 37.4 ± 5.3 µM, the “concentration giving ≥90% prevention of S. aureus Newman adherence to fibrinogen” value [7] was over 170 µM and the “S. aureus MIC” value [8] was 6.7 ± 1.5 µM.
